Data reported in ChEMBL document CHEMBL1201862, “PubChem BioAssay data set” (2004).
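Cultured in 96-well plates, cells were exposed to test compound for 48 hours across five concentrations. Here, GI50 denotes the concentration required for 50% inhibition of growth.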 Active and inactive are the calls of the source. Rule as the data show it: active = GI50 up to about 1.1 µM and inactive = higher.

Tests used:
Assay in all cases: DTP human tumour cell line panel, 48 h
A549 = tested on: A549
EKVX = tested on: EKVX
HCC 2998 = tested on: HCC 2998
HCT-15 = tested on: HCT-15
HOP-62 = tested on: HOP-62
KM12 = tested on: KM12
OVCAR-3 = tested on: OVCAR-3
OVCAR-4 = tested on: OVCAR-4
OVCAR-8 = tested on: OVCAR-8
RPMI-8226 = tested on: RPMI-8226
SF-268 = tested on: SF-268
SK-OV-3 = tested on: SK-OV-3
SNB-19 = tested on: SNB-19
UO-31 = tested on: UO-31
M14 = tested on: M14
SR = tested on: SR
RXF 393 = tested on: RXF 393

| SMILES | GI50 (A549) | GI50 (EKVX) | GI50 (HCC 2998) | GI50 (HCT-15) | GI50 (HOP-62) | GI50 (KM12) | GI50 (OVCAR-3) | GI50 (OVCAR-4) | GI50 (OVCAR-8) | GI50 (RPMI-8226) | GI50 (SF-268) | GI50 (SK-OV-3) | GI50 (SNB-19) | GI50 (UO-31) | GI50 (M14) | GI50 (SR) | GI50 (RXF 393) |
| --- | --- | --- | --- | --- | --- | --- | --- | --- | --- | --- | --- | --- | --- | --- | --- | --- | --- |
| CSC(C1c2ccccc2N(C)C2=NC(=O)N(C)C(=O)C21Cl)S(=O)(=O)c1ccc(C)cc1 (configuration not stated) | > 100 µM (inactive) | 94.4 µM (inactive) | > 100 µM (inactive) | 40.9 µM | > 100 µM (inactive) | 60.5 µM (inactive) | 18.9 µM (inactive) | 61.2 µM (inactive) | 21 µM (inactive) | 26.2 µM (inactive) | 29.3 µM (inactive) | > 100 µM (inactive) | 64.3 µM (inactive) | 79.8 µM (inactive) | – | – | – |
| O=c1c2cc(Br)cc(Br)c2nc(CCCl)n1-c1ccc(O)c([N+](=O)[O-])c1 | 15.5 µM (inactive) | 34.5 µM (inactive) | 18.5 µM (inactive) | 19 µM | 18.7 µM (inactive) | 18.5 µM (inactive) | 19.1 µM (inactive) | 15.5 µM (inactive) | 22.9 µM (inactive) | 30.2 µM (inactive) | 19.3 µM (inactive) | 15.8 µM (inactive) | 20.1 µM (inactive) | 19.7 µM (inactive) | 17.2 µM (inactive) | 41.5 µM (inactive) | – |
| C/C(=N/NS(=O)(=O)c1ccc(C)cc1)c1cccc[n+]1[O-] | > 100 µM (inactive) | > 100 µM (inactive) | > 100 µM (inactive) | > 100 µM | > 100 µM (inactive) | > 100 µM (inactive) | > 100 µM (inactive) | > 100 µM (inactive) | > 100 µM (inactive) | > 100 µM (inactive) | > 100 µM (inactive) | > 100 µM (inactive) | > 100 µM (inactive) | > 100 µM (inactive) | > 100 µM (inactive) | > 100 µM (inactive) | – |
| C/C(CC(=O)CCCC(=O)Nc1ccc(Cl)cc1Cl)=N/NC(=O)CC#N | > 100 µM (inactive) | > 100 µM (inactive) | > 100 µM (inactive) | > 100 µM | – | > 100 µM (inactive) | > 100 µM (inactive) | > 100 µM (inactive) | > 100 µM (inactive) | > 100 µM (inactive) | > 100 µM (inactive) | > 100 µM (inactive) | > 100 µM (inactive) | > 100 µM (inactive) | > 100 µM (inactive) | – | > 100 µM (inactive) |
| O=C(O)c1ccc2c(c1)C(=O)N(c1ccc(S(=O)(=O)c3ccc(N4C(=O)c5ccc(C(=O)O)cc5C4=O)cc3)cc1)C2=O | > 100 µM (inactive) | > 100 µM (inactive) | – | > 100 µM | > 100 µM (inactive) | > 100 µM (inactive) | > 100 µM (inactive) | > 100 µM (inactive) | > 100 µM (inactive) | > 100 µM (inactive) | > 100 µM (inactive) | > 100 µM (inactive) | > 100 µM (inactive) | > 100 µM (inactive) | > 100 µM (inactive) | > 100 µM (inactive) | > 100 µM (inactive) |
| OC12c3ccccc3C1(N1CCOCC1)CCCCC21OCCCO1 (configuration not stated) | > 100 µM (inactive) | – | – | > 100 µM | > 100 µM (inactive) | > 100 µM (inactive) | > 100 µM (inactive) | > 100 µM (inactive) | > 100 µM (inactive) | > 100 µM (inactive) | > 100 µM (inactive) | > 100 µM (inactive) | > 100 µM (inactive) | – | > 100 µM (inactive) | – | > 100 µM (inactive) |
| CCCCCCCCCCCc1nnc(N)o1 | > 100 µM (inactive) | – | > 100 µM (inactive) | > 100 µM | > 100 µM (inactive) | > 100 µM (inactive) | > 100 µM (inactive) | 65.2 µM (inactive) | > 100 µM (inactive) | > 100 µM (inactive) | 99.1 µM (inactive) | > 100 µM (inactive) | 18.9 µM (inactive) | 13.6 µM (inactive) | > 100 µM (inactive) | > 10 µM (inactive) | – |
| COc1cc(C(=O)C/C(CCC(=O)Nc2ccccc2[N+](=O)[O-])=N\NC(=O)C(N)=O)ccc1O | > 100 µM (inactive) | > 100 µM (inactive) | – | > 100 µM | > 100 µM (inactive) | > 100 µM (inactive) | > 100 µM (inactive) | > 100 µM (inactive) | > 100 µM (inactive) | – | > 100 µM (inactive) | > 100 µM (inactive) | > 100 µM (inactive) | > 100 µM (inactive) | > 100 µM (inactive) | > 100 µM (inactive) | 76.4 µM (inactive) |
| CC1CC#CCOC(=O)CCCC1=O (configuration not stated) | > 100 µM (inactive) | – | > 100 µM (inactive) | – | > 100 µM (inactive) | > 100 µM (inactive) | > 100 µM (inactive) | > 100 µM (inactive) | > 100 µM (inactive) | > 100 µM (inactive) | > 100 µM (inactive) | > 100 µM (inactive) | > 100 µM (inactive) | – | > 100 µM (inactive) | – | > 100 µM (inactive) |
| CCn1c(=O)nc2n(-c3ccc(SC)cc3)c3ccccc3nc-2c1=O | 29.1 µM (inactive) | > 100 µM (inactive) | 29 µM (inactive) | > 100 µM | > 100 µM (inactive) | > 100 µM (inactive) | 24.6 µM (inactive) | > 100 µM (inactive) | > 100 µM (inactive) | 71.1 µM (inactive) | 79.8 µM (inactive) | > 100 µM (inactive) | > 100 µM (inactive) | > 100 µM (inactive) | > 100 µM (inactive) | – | – |
| C[N+](C)=c1[nH]c2ccccc2[nH]1 | > 100 µM (inactive) | > 100 µM (inactive) | > 100 µM (inactive) | > 100 µM | > 100 µM (inactive) | > 100 µM (inactive) | > 100 µM (inactive) | > 100 µM (inactive) | > 100 µM (inactive) | > 100 µM (inactive) | > 100 µM (inactive) | > 100 µM (inactive) | – | > 100 µM (inactive) | > 100 µM (inactive) | – | > 100 µM (inactive) |
| COc1cc2ccnc(-c3c4ccccc4c(N)c4c(OC)c(OC)ccc34)c2cc1OC | 4.17 µM (inactive) | 10.4 µM (inactive) | 2.62 µM (inactive) | – | 2.96 µM (inactive) | 2.38 µM (inactive) | – | 1.97 µM (inactive) | 3.6 µM (inactive) | – | 3.01 µM (inactive) | 7.13 µM (inactive) | 2.85 µM (inactive) | 3.18 µM (inactive) | – | 1.8 µM (inactive) | 2.4 µM (inactive) |
| O=P1(c2ccccc2)CCCCC1 | > 100 µM (inactive) | > 100 µM (inactive) | > 100 µM (inactive) | > 100 µM | > 100 µM (inactive) | > 100 µM (inactive) | > 100 µM (inactive) | > 100 µM (inactive) | > 100 µM (inactive) | > 100 µM (inactive) | – | > 100 µM (inactive) | > 100 µM (inactive) | > 100 µM (inactive) | > 100 µM (inactive) | > 100 µM (inactive) | > 100 µM (inactive) |
| CC(=O)OCC1OC(n2cccnc2=O)C(OC(C)=O)C1OC(C)=O (configuration not stated) | > 100 µM (inactive) | > 100 µM (inactive) | – | > 100 µM | > 100 µM (inactive) | > 100 µM (inactive) | > 100 µM (inactive) | > 100 µM (inactive) | > 100 µM (inactive) | > 100 µM (inactive) | > 100 µM (inactive) | > 100 µM (inactive) | > 100 µM (inactive) | > 100 µM (inactive) | > 100 µM (inactive) | > 100 µM (inactive) | > 100 µM (inactive) |
| CC(=O)OC1(C)C(=O)OC1(C)C(C)=O (configuration not stated) | > 100 µM (inactive) | > 100 µM (inactive) | > 100 µM (inactive) | > 100 µM | – | > 100 µM (inactive) | > 100 µM (inactive) | > 100 µM (inactive) | > 100 µM (inactive) | > 100 µM (inactive) | > 100 µM (inactive) | > 100 µM (inactive) | > 100 µM (inactive) | > 100 µM (inactive) | > 100 µM (inactive) | – | > 100 µM (inactive) |
| C(=C1\CCC/C(=C/c2ccccc2)C1=NNc1ccccc1)/c1ccccc1 | > 100 µM (inactive) | > 100 µM (inactive) | > 100 µM (inactive) | > 100 µM | 46.7 µM (inactive) | > 100 µM (inactive) | > 100 µM (inactive) | > 100 µM (inactive) | > 100 µM (inactive) | > 100 µM (inactive) | > 100 µM (inactive) | > 100 µM (inactive) | > 100 µM (inactive) | > 100 µM (inactive) | > 100 µM (inactive) | – | 38.2 µM (inactive) |
| COc1cccc(C(=O)C2C(=O)N(C)CCc3ccccc32)c1OC (configuration not stated) | > 100 µM (inactive) | – | – | > 100 µM | > 100 µM (inactive) | > 100 µM (inactive) | > 100 µM (inactive) | > 100 µM (inactive) | > 100 µM (inactive) | > 100 µM (inactive) | > 10 µM (inactive) | > 100 µM (inactive) | > 100 µM (inactive) | > 100 µM (inactive) | > 100 µM (inactive) | – | > 100 µM (inactive) |
| Cc1ccc2nc3c(Cl)cc(=O)cc-3sc2c1 | 19.5 µM (inactive) | 22.2 µM (inactive) | – | 17.5 µM | – | > 10 µM (inactive) | 3 µM (inactive) | 16.1 µM (inactive) | 21.2 µM (inactive) | – | 23.6 µM (inactive) | > 10 µM (inactive) | > 10 µM (inactive) | 34 µM (inactive) | 22.1 µM (inactive) | > 10 µM (inactive) | – |
| COc1cc(C2c3cc4c(cc3[C@@H](Nc3ccc(N(C)C)cc3)[C@H]3COC(=O)C23)OCO4)cc(OC)c1O (some centres not stated) | 0.0871 µM (active) | 0.456 µM (active) | 1.27 µM (inactive) | 0.838 µM | 0.103 µM (active) | 1.24 µM (inactive) | 8.04 µM (inactive) | 9.35 µM (inactive) | 0.587 µM (active) | – | 0.351 µM (active) | 0.212 µM (active) | 0.273 µM (active) | 0.607 µM (active) | 0.327 µM (active) | 0.0127 µM (active) | 0.951 µM (active) |
